Consider 6 compounds from patent publication US9023875B2, “Macrocyclic compounds and methods of treatment” (University of Florida Research Foundation, Inc., priority 2007, dated 2015).

Read-outs that look alike come from different tables or passages of the source. Starred links: 1 amine or outer side, 2 acyl side, 3 side chain; linkers in the order of their positions; H or OH if unused. Positions of bridges follow the written chain, without caps; N, C: chain ends. Non-standard residues stand in square brackets, D forms with d. Residues, ends and D or L forms follow the SMILES beside them. Chains are numbered I, II in the order given. Actinocin(9to1) = Cc1c2oc3c(C)ccc(C(=O)[*:1])c3nc-2c(C(=O)[*:2])c(N)c1=O; NMeV = CN[C@H](C(=O)O)C(C)C; Sar = CNCC(=O)O

What is called GI50 is the concentration at which growth is held to half of that of the control. A word on the IC50: it is the point on the concentration scale where inhibition reaches its midpoint. A lower IC50 goes with higher potency.

Data set [1] in a line: in vitro. It counts as cell-based, murine. To be noted: mouse, NMuMG cells, MTT, read-out: LC50 (cytotoxicity), NMuMG. How it is done: (§1) Cell culture medium was purchased from Invitrogen and fetal bovine serum (FBS) from Hyclone. Cells were propagated and maintained in DMEM medium (high glucose) supplemented with 10% FBS at 37° C. humidified air and 5% CO2.
(§2) Cells suspended in DMEM containing 10% FBS were plated in 96-well plates (MDA-MB-231: 12,000 cells; NMuMG: 5,000 cells; U20S: 5,000 cells; HT29: 10,000 cells; 1MR-32: 30,000 cells; NIH3T3: 5,000 cells) incubated (37° C., 5% CO2) and 24 h later treated with various concentrations of compound 1 or solvent control (1% EtOH). After another 48 h of incubation, cell viability was measured using MITT according to manufacturer's instructions (Promega).
(§3) MDA-MB-231 and NMuMG cells were also treated with paclitaxel (in DMSO), actinomycin D (in DMSO) and doxorubicin (in H2O) and corresponding solvent control (1%) in the same manner. GI50 and LC50 values were calculated as previously described (K. D. Paull, E. Hamel, L. Malspeis, In Cancer Chemotherapeutic Agents, W. E. Foye, Ed., American Chemical Society, Washington, D.C., 1995, pp. 10-11).
(§4) [formula] [formula] [T=absorbance in treated wells (48 h); T0=absorbance at time zero; C=absorbance in control wells (48 h)]

The subject of data set [2] is MDA-MB-231 cells (highly invasive transformed human mammary epithelial cells). Put plainly: cells. The format is cell-based. How it is done:
as §1, §2, §3, §4

Data set [3] has as its system NIH3T3 cells (nontransformed fibroblasts). The data set is described as follows: cells. The format is cell-based. To be noted: for GI50: read-out: Growth-inhibitory activity (GI50), NIH3T3. The protocol: as §1, §2, §3, §4
For data set [4], the system named is NMuMG cells (nontransformed murine mammary epithelial cells). The data set is described as follows: cells. The format is cell-based. To be noted: 48 h, read-out: Growth-inhibitory activity (GI50), NMuMG. How it is done:
as §1, §2, §3, §4

Data set [5] relates to U2OS cells (fibroblastic osteosarcoma). Put plainly: cells. It counts as cell-based. To be noted: for GI50: read-out: Growth-inhibitory activity (GI50), U2OS. How it is done:
as §1, §2, §3, §4

Data set [6] deals with HT29 cells (colon cancer cell line). The data set is described as follows: Cell viability (MTT) assay, HT29. The format is cell-based. To be noted: Homo sapiens, HT-29, 48 h. The protocol:
as §1, §2, §3, §4

Data set [7] has as its system IMR-32 cells (neuroblastoma cell line). The data set is described as follows: Cell viability (MTT) assay, IMR-32. To be noted: Homo sapiens, 48 h. It counts as cell-based. The protocol:
as §1, §2, §3, §4

Data set [8] concerns HCT-116 cells. The data set is described as follows: HCT-116 growth inhibition. It counts as cell-based. To be noted: Homo sapiens.
Data set [9] deals with HDAC. The data set is described as follows: In vitro cellular HDAC activity assay (fluor de Lys substrate) in HCT-116 cells. The format is cell-based. To be noted: 8 h. How it is done:
HCT-116 cells are seeded in 100 μL of medium per well at a density of 3.5×10^3 cells/well and grown for 24 h in a sterile 96-well solid bottom plate. The assay is carried out according to the manufacturer's instructions (BIOMOL). Briefly, after 24 h the medium iss replaced with 50 μL/well of medium containing 200 μM fluor de Lys™ substrate and 1 μM of trichostatin A (positive control) and test compounds (largazole, acetyl derivative) ranging from 1 μM to 3.2 nM ([…]) and thiol compound ranging from 10 μM to 300 pM. Plates are incubated at 37° C. for 8 h. After the treatment time, 50 μL per well of 1× fluor de Lys™ Developer containing TSA at 2 μM iss added. After developer addition, plates are incubated for 15 min at 37° C. and fluorescence is read (Ex 360 nm, Em 460 nm).

Data set [10] concerns HeLa nuclear extract HDACs (class I HDACs 1, 2, and 3). The data set is described as follows: Cell-free enzymatic assay with HDAC-enriched HeLa nuclear protein extract. It counts as biochemical. To be noted: fluor de Lys substrate. The protocol:
Largazole (1) inhibited HDAC activity from a HeLa cell nuclear protein extract rich in class I HDACs 1, 2, and 3 (BIOMOL); however, it is possible that the thioester is cleaved under assay conditions. To investigate that thiol 9 is a reactive species, we liberated 9 from the acetyl analog 8 of largazole (1) and measured enzymatic activity directly; thiol 9 inhibited the HDACs in the nuclear extract of HeLa cells with a similar IC50 value (Table 3).
Assay buffer (25 ul in blank and 10 ul in control), 1 μM triehostatin and test inhibitors (ranging from 10 μM to 300 pM) are added to test sample wells of the microtiter plate. HDAC-enriched nuclear protein extract from HeLa cells (BIOMOL) (5 μg in 15 uL) is added to all wells except in the no-enzyme control. The assay plate is equilibrated at 37° C., and then 25 μl of substrate fluor de Lys™ substrate is added to a final concentration of 116 μM. HDAC reaction is allowed to proceed for 15 min and then stopped by addition of 50 μl per well of 1× fluor de Lys™ Developer containing TSA at 2 μM. After developer addition, plates are incubated for 15 min at 37° C. and fluorescence is read (Ex 360 nm, Em 460 nm).

Data set [11] relates to acetylated histone H3. The data set is described as follows: Immunoblot analysis of acetylated histone H3 in HCT-116 cells. The format is cell-based. To be noted: 8 h. How it is done:
HCT-116 cells (650,000 cells/dish) are seeded in 10-cm dishes and 24 h later treated with various concentrations of largazole, trichostatin or solvent controls (EtOH for largazole and DMSO for trichostatin). Following incubation for 8 h, whole-cell lysates are prepared using PhosphoSafe lysis buffer (Novagen), proteins extracted, and protein concentration measured using the BCA method (Pierce). Cell lysates containing equal amounts of protein are separated by SDS-PAGE, transferred to PVDF membranes, probed with antibodies and detected with the Supersignal Femto Western blotting kit (Pierce). Anti-acetyl-histone H3 (Lys9/18) and anti-histone H3 primary antibodies are obtained from Millipore and horseradish peroxidase conjugated anti-rabbit secondary antibody is purchased from Cell Signaling.
In general terms: Immunoblotting shows a protein as a band on a membrane.

[12] abbreviates: Homo sapiens, MDA-MB-231, 48 h, MDA-MB-231 cells, 48 h, MTT, read-out: Growth-inhibitory activity (GI50), MDA-MB-231.
Where [13] appears, read: Mus musculus, NIH3T3 cells, 48 h, MTT.
The mark [14] stands for this setting: Mus musculus, Epithelial cell, NMuMG cells, MTT.
The mark [15] stands for this setting: Homo sapiens, U2OS cells, 48 h, MTT.

In the case of `CCCCCCCC(=O)SCC/C=C/[C@@H]1CC(=O)NCc2nc(cs2)C2=N[C@@](C)(CS2)C(=O)N[C@@H](C(C)C)C(=O)O1` [Largazole (1), largazole], the CC50 at 48 h in data set [1] worked out at 272 nM. The GI50 in data set [2] (Homo sapiens, MDA-MB-231, 48 h, read-out: Growth-inhibitory activity (GI50), MDA-MB-231, MDA-MB-231 cells, 48 h, MTT) is 8 nM; in data set [2] (read-out: Growth-inhibitory activity (GI50), MDA-MB-231, MDA-MB-231 cells, 48 h, MTT), 7.7 nM; in data set [3] (Mus musculus, NIH3T3, 48 h) it was 480 nM; in data set [4] (Mus musculus, Epithelial cell), 122 nM; in data set [5] (Homo sapiens, U2OS, 48 h), 55 nM; in data set [6], 12 nM. For the same compound, the GI50 was found to be 16 nM in data set [7] and 44 ± 10 nM in [8]. In addition, the “Differential growth-inhibitory activity between transformed and nontransformed epithelial cells” value in data set [2] (MDA-MB-231 vs NMuMG (GI50)) worked out at 15 fold. Also, the “Toxicity (cytotoxicity) in NIH3T3” value in data set [3] (NIH3T3 cells, 48 h, MTT) is given as “no apparent toxicity”. In addition, the CC50 was found to be 94 nM in data set [5] (Homo sapiens, U2OS, 48 h, read-out: LC50 (cytotoxicity), U2OS) and 22 nM in data set [6] (read-out: LC50 (cytotoxicity), HT29). For the same compound, in data set [5] (U2OS vs NIH3T3 (GI50)), the “Differential growth-inhibitory activity between transformed and nontransformed fibroblasts” value was 8 fold. Moreover, the IC50 in data set [9] was 51 ± 3 nM; in data set [10], 37 ± 11 nM. Further, the “Immunoblot of endogenous HDAC substrate acetylated histone H3” value in data set [11] was “same dose-response relationship”.
In the case of `CC(=O)SCCC=CC1CC(=O)NCc2nc(cs2)C2=NC(C)(CS2)C(=O)NC(C(C)C)C(=O)O1` (centres unmarked) [Compound 8], in data set [8], it took 33 ± 2 nM to inhibit growth by half (GI50). Moreover, the figures for the concentration for half-maximal inhibition (IC50) in data set [9] and in data set [10] were 50 ± 18 nM and 52 ± 27 nM, respectively.
With `CC(=O)O[C@H]1C(=O)[C@@]2(C)[C@H]([C@H](OC(=O)c3ccccc3)[C@]3(O)C[C@H](OC(=O)[C@H](O)[C@@H](NC(=O)c4ccccc4)c4ccccc4)C(C)=C1C3(C)C)[C@]1(OC(C)=O)CO[C@@H]1C[C@@H]2O` [Paclitaxel, reference compound], the 50% growth inhibitory concentration (GI50) in data set [2] (setting [12]) stood at 7 nM; in [3] (setting [13]) it was 6.4 nM; in data set [4] (setting [14]), 5.9 nM; in [5] (setting [15]) it was 12 nM.
Taken in the same sequence, the figures for `COc1cccc2c1C(=O)c1c(O)c3c(c(O)c1C2=O)C[C@@](O)(C(=O)CO)C[C@@H]3O[C@H]1C[C@H](N)[C@H](O)[C@H](C)O1` [Doxorubicin, reference compound] were 310 nM, 47 nM, 63 nM and 220 nM.
Turning to `Cc1c2oc3c(C)ccc(C(=O)N[C@@H]4C(=O)N[C@H](C(C)C)C(=O)N5CCC[C@H]5C(=O)N(C)CC(=O)N(C)[C@@H](C(C)C)C(=O)O[C@@H]4C)c3nc-2c(C(=O)N[C@@H]2C(=O)N[C@H](C(C)C)C(=O)N3CCC[C@H]3C(=O)N(C)CC(=O)N(C)[C@@H](C(C)C)C(=O)O[C@@H]2C)c(N)c1=O` [Actinomycin D, reference compound] (I: T[dV]P[Sar][NMeV] / II: T[dV]P[Sar][NMeV]; ester I:1-I:C, II:1-II:C; linker I:N-II:N via Actinocin(9to1)), the GI50 in data set [2] (MDA-MB-231 cells, 48 h, MTT, read-out: Growth-inhibitory activity (GI50), MDA-MB-231) turned out to be 0.5 nM; in data set [3] (NIH3T3 cells, 48 h, MTT) it was 0.4 nM; in [4] (NMuMG cells, MTT), 0.3 nM; in data set [5] (U2OS cells, 48 h, MTT) it was 0.8 nM.
With `CC(C)C1NC(=O)C2(C)CSC(=N2)c2csc(n2)CNC(=O)CC(C=CCCS)OC1=O` (centres unmarked) [Compound 9], the 50% growth inhibitory concentration (GI50) in data set [8] is 38 ± 5 nM. The values for the IC50 in data set [9] and in [10] were 209 ± 15 nM and 42 ± 29 nM, respectively.
